The results in this text go back to ChEMBL document CHEMBL1140163 (J Med Chem, 2008).

Sequence of Mast/stem cell growth factor receptor Kit (P10721 whole entry): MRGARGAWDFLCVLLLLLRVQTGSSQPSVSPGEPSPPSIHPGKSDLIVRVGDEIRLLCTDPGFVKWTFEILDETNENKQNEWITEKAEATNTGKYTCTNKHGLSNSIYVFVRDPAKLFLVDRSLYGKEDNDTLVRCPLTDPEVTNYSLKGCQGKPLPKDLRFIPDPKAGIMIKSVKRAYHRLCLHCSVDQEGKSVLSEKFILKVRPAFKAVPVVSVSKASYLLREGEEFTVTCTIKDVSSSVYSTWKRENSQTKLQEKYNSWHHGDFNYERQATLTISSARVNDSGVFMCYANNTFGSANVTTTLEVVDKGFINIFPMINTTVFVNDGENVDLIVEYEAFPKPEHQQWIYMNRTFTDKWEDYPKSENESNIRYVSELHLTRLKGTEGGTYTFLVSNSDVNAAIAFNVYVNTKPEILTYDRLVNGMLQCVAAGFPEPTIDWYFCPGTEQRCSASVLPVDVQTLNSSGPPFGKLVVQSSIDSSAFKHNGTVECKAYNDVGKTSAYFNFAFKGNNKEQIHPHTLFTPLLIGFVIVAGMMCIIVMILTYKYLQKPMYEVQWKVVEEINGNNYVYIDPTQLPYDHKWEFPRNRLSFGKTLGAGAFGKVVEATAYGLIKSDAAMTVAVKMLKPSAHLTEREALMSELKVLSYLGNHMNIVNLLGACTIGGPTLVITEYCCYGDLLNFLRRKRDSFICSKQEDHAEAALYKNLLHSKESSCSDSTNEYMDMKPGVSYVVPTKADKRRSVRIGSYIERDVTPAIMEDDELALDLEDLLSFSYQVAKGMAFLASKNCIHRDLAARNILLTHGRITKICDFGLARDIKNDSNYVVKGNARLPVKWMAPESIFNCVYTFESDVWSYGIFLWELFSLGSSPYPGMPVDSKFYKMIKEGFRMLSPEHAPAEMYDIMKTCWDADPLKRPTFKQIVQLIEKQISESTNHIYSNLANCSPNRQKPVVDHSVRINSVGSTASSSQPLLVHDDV
Sequence of Tyrosine-protein kinase Lck (P06239 whole entry): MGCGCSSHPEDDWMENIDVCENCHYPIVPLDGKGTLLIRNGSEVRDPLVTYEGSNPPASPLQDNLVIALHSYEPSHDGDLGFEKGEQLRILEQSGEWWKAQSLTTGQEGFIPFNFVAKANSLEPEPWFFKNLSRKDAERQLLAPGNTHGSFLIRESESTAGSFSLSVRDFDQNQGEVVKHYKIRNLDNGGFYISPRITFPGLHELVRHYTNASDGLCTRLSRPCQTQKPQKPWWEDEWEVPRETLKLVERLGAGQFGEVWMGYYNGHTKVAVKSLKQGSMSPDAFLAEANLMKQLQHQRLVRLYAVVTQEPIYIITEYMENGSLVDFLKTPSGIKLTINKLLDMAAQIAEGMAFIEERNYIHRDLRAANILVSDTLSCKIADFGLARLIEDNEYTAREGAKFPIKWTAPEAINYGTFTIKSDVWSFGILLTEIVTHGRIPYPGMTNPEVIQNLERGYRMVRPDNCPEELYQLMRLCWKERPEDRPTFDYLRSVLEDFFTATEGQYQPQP

The first series has as its target Mast/stem cell growth factor receptor Kit (Homo sapiens, UniProt P10721). In words: Inhibition of cKit.
Details: not given
`O=C(NC1CC1)c1cccc(-c2ccc3c(N4CCOCC4)nncc3c2)c1`: the half-maximal inhibitory concentration (IC50) (as a rule, the concentration needed to halve the response being measured) was > 8330 nM.
Same read-out and setting: for `Cc1ccc(C(=O)NC2CC2)cc1-c1ccc2c(N3CCOC[C@@H]3C)nncc2c1` the value was 2010 nM; for `Cc1ccc(C(=O)NC2CC2)cc1-c1ccc2c(O[C@H](C)C(F)(F)F)nncc2c1`, 1170 nM.
Same read-out and setting: to `Cc1ccc(C(=O)NC2CC2)cc1-c1ccc2c(OC(C)C)cncc2c1` belongs 41 nM.

The target in the next series is Mitogen-activated protein kinase 8 (Homo sapiens, UniProt P45983). In words: Inhibition of JNK1.
Sequence of Mitogen-activated protein kinase 8 (P45983 whole entry): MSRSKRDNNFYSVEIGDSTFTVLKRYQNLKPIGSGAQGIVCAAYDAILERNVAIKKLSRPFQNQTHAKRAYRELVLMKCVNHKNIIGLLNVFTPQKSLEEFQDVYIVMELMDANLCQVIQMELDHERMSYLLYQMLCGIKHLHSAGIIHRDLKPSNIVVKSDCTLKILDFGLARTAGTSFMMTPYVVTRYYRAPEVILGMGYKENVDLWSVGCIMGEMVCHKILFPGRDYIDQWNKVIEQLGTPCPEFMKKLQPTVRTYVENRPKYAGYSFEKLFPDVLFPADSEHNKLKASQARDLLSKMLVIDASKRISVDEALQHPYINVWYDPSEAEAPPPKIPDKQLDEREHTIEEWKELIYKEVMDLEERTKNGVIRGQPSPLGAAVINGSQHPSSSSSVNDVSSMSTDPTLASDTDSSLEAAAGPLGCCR
Details: not given
For the molecule `Cc1ccc(C(=O)NC2CC2)cc1-c1ccc2c(N3CCOC[C@@H]3C)nncc2c1`, the IC50 is > 10000 nM.
On the same count and under the same terms, for `Cc1ccc(C(=O)NC2CC2)cc1-c1ccc2c(O[C@H](C)C(F)(F)F)nncc2c1` the value was > 10000 nM.

A further series deals with Mitogen-activated protein kinase 9 (Homo sapiens, UniProt P45984). The experiment in a line: Inhibition of JNK2.
Sequence of Mitogen-activated protein kinase 9 (P45984 whole entry): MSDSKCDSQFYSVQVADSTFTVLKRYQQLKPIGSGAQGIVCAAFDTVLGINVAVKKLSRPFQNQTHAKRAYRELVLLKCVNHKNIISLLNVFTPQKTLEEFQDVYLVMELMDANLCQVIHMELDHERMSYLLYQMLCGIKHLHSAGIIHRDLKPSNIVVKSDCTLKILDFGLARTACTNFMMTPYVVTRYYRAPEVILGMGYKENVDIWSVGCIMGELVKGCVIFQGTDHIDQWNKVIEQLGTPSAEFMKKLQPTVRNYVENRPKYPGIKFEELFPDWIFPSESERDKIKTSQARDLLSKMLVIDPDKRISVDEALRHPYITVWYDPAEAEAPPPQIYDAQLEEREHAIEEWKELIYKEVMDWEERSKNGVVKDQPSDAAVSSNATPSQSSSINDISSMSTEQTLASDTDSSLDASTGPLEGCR
Details: not given
As for `Cc1ccc(C(=O)NC2CC2)cc1-c1ccc2c(N3CCOC[C@@H]3C)nncc2c1`, 4830 nM corresponded to half-maximal inhibition (IC50).
On the same count and under the same terms, to `Cc1ccc(C(=O)NC2CC2)cc1-c1ccc2c(O[C@H](C)C(F)(F)F)nncc2c1` belongs 4390 nM.

For another series, the target named is Mitogen-activated protein kinase 10 (Homo sapiens, UniProt P53779). The experiment in a line: Inhibition of JNK3.
Sequence of Mitogen-activated protein kinase 10 (P53779 whole entry): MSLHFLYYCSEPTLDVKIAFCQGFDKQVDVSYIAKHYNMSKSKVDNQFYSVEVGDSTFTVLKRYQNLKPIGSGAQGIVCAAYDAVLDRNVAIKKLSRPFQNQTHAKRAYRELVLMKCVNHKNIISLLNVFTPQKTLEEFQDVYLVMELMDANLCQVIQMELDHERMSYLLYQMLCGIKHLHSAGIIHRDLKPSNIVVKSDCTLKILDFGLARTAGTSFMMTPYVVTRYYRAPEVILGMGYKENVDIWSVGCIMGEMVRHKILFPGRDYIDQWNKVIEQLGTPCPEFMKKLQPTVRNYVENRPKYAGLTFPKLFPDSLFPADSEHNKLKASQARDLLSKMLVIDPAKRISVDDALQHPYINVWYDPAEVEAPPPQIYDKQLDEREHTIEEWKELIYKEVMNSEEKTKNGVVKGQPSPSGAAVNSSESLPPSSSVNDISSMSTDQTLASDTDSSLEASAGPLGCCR
Details: not given
On to `Cc1ccc(C(=O)NC2CC2)cc1-c1ccc2c(N3CCOC[C@@H]3C)nncc2c1`, for which the half-maximal inhibitory concentration (IC50) was > 10000 nM.
Molecule `Cc1ccc(C(=O)NC2CC2)cc1-c1ccc2c(O[C@H](C)C(F)(F)F)nncc2c1` had a half-maximal inhibitory concentration (IC50) of 9490 nM.

A further series deals with THP-1. In words: Inhibition of LPS-induced TNFalpha production in human THP1 cells. Type of series: functional, cell-based.
Details: not given
With `Cc1ccc(C(=O)NC2CC2)cc1-c1ccc2c(N3CCOC[C@@H]3C)nncc2c1`, inhibition was half-maximal at 1.1 nM (IC50).
Same read-out and setting: to `Cc1ccc(C(=O)NC2CC2)cc1-c1ccc2c(O[C@H](C)C(F)(F)F)nncc2c1` belongs 0.9 nM.

A further series concerns Blood. The experiment in a line: Inhibition of TNF-alpha-induced IL8 production in human whole blood cells. The format is functional, cell-based.
Details: not given
In turn, `Cc1ccc(C(=O)NC2CC2)cc1-c1ccc2c(N3CCOC[C@@H]3C)nncc2c1` had an IC50 of 1.2 nM. This counts as single-digit nanomolar.
`Cc1ccc(C(=O)NC2CC2)cc1-c1ccc2c(O[C@H](C)C(F)(F)F)nncc2c1` registered a 50% inhibitory concentration (IC50) of 8.1 nM.

System in the next series: not listed separately
The experiment in a line: Clearance in Sprague-Dawley rat 2 mg/kg, iv. Type of series: ADME, organism-based. Also noted: dose 2 mg/kg, route intravenous. The following applies: in vivo.
Take `Cc1ccc(C(=O)NC2CC2)cc1-c1ccc2c(-c3ccccc3C)nncc2c1`: the clearance – broadly, the rate of elimination divided by the concentration – is 28.3 mL/min/kg.
Take `Cc1ccc(C(=O)NC2CC2)cc1-c1ccc2c(N3CCOC[C@@H]3C)nncc2c1`: the clearance is 13.3 mL/min/kg. This clearance is about 2.1-fold lower than that of the molecule before.

System in another series: not listed separately
In words: Volume of distribution at steady state in Sprague-Dawley rat 2 mg/kg, iv. The format is ADME, organism-based. Also noted: dose 2 mg/kg, route intravenous. The following applies: in vivo, read-out: Vdss.
For the molecule `Cc1ccc(C(=O)NC2CC2)cc1-c1ccc2c(-c3ccccc3C)nncc2c1`, the Vd stood at 1.8 L/kg.
On the same count and under the same terms, to `Cc1ccc(C(=O)NC2CC2)cc1-c1ccc2c(N3CCOC[C@@H]3C)nncc2c1` belongs 1.2 L/kg.

System in another series: not listed separately
The experiment in a line: Half life in Sprague-Dawley rat 2 mg/kg, iv. The format is ADME, organism-based. Also noted: dose 2 mg/kg, route intravenous. Particulars: in vivo.
As to `Cc1ccc(C(=O)NC2CC2)cc1-c1ccc2c(-c3ccccc3C)nncc2c1`, the half-life (in general, the time in which the quantity being followed falls by half) was 1.4 h.
The same measure, in the same setting: for `Cc1ccc(C(=O)NC2CC2)cc1-c1ccc2c(N3CCOC[C@@H]3C)nncc2c1` the value was 1.3 h.

System in another series: not listed separately
The experiment in a line: AUC (0 to infinity) in Sprague-Dawley rat 10 mg/kg, po. Also noted: dose 10 mg/kg, route oral, time infinity. Particulars: plasma. The format is ADME, organism-based.
As to `Cc1ccc(C(=O)NC2CC2)cc1-c1ccc2c(-c3ccccc3C)nncc2c1`, the AUC(0-inf) (as a rule, the area under the concentration-time curve extrapolated to infinity) stood at 2330 ng·h/mL.
`Cc1ccc(C(=O)NC2CC2)cc1-c1ccc2c(N3CCOC[C@@H]3C)nncc2c1` displayed an area under the curve AUC(0-inf) of 7090 ng·h/mL.

System in a further series: not listed separately
The experiment in a line: Oral bioavailability in Sprague-Dawley rat 10 mg/kg. Type of series: ADME, organism-based. The following applies: in vivo.
For `Cc1ccc(C(=O)NC2CC2)cc1-c1ccc2c(-c3ccccc3C)nncc2c1`, the bioavailability (as a rule, dose-corrected exposure relative to a reference, in per cent) came to 40%.
On the same count and under the same terms, for `Cc1ccc(C(=O)NC2CC2)cc1-c1ccc2c(N3CCOC[C@@H]3C)nncc2c1` the value was 57%.

The target of the next series is Mitogen-activated protein kinase 14 (Homo sapiens, UniProt Q16539).
Sequence of Mitogen-activated protein kinase 14 (Q16539 whole entry): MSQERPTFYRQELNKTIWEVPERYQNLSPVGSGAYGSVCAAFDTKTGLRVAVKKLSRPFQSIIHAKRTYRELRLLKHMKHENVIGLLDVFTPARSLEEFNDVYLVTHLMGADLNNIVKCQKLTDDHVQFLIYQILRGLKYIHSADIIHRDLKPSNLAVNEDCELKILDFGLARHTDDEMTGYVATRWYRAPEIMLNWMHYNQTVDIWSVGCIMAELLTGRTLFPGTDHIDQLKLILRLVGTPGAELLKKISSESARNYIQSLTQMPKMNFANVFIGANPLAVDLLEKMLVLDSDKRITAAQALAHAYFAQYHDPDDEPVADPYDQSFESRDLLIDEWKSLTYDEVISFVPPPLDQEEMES
Details: not given
The molecule `O=C(NC1CC1)c1cccc(-c2ccc3c(N4CCOCC4)nncc3c2)c1` had a concentration for half-maximal inhibition (IC50) of 182 nM.
Same read-out and setting: to `Cc1ccc(C(=O)NC2CC2)cc1-c1ccc2c(N3CCOC[C@@H]3C)nncc2c1` belongs 1.1 nM; to `Cc1ccc(C(=O)NC2CC2)cc1-c1ccc2c(O[C@H](C)C(F)(F)F)nncc2c1`, 0.8 nM.
On to `Cc1ccc(C(=O)NC2CC2)cc1-c1ccc2c(OC(C)C)cncc2c1`, for which the midpoint of inhibition, the IC50, lay at 0.6 nM. This IC50 and that of the molecule before are within 1.5-fold of each other.

For a further series, the target named is Vascular endothelial growth factor receptor 2 (Homo sapiens, UniProt P35968).
Sequence of Vascular endothelial growth factor receptor 2 (P35968 whole entry): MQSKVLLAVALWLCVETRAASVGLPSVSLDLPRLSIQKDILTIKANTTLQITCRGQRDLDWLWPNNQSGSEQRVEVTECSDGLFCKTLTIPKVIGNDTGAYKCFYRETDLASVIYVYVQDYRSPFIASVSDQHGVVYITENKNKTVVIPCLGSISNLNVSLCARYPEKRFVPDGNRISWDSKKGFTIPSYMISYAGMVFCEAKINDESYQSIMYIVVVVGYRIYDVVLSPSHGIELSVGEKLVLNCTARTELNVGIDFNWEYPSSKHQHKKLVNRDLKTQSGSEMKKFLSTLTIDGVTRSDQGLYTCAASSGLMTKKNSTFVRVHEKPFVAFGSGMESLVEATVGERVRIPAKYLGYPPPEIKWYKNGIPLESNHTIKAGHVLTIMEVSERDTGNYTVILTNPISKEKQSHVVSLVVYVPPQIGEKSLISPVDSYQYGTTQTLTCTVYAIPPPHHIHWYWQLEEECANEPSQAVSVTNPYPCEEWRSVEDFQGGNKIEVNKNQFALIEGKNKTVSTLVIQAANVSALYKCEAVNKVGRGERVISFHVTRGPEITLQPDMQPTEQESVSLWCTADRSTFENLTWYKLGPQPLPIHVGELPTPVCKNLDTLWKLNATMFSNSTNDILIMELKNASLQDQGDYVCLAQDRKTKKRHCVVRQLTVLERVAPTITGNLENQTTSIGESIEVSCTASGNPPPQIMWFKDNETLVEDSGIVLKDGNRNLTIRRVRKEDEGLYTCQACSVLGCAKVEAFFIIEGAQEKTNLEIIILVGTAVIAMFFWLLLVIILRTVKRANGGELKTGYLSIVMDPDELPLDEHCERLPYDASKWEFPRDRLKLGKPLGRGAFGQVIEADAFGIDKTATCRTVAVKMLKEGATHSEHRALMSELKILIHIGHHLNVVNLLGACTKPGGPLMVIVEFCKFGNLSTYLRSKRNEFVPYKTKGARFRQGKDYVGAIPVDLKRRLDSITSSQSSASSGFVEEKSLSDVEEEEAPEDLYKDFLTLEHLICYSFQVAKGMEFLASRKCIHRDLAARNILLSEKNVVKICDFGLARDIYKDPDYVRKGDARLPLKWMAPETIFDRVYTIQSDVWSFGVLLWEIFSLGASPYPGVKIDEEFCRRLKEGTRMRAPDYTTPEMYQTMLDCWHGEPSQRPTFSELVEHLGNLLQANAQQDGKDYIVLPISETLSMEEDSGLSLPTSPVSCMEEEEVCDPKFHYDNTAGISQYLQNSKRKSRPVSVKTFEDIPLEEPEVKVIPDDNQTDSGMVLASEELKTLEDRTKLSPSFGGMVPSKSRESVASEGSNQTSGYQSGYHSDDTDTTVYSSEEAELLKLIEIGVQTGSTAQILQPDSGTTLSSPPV
Details: not given
For the molecule `Cc1ccc(C(=O)NC2CC2)cc1-c1ccc2c(N3CCOC[C@@H]3C)nncc2c1`, 8550 nM corresponded to half-maximal inhibition (IC50).
Molecule `Cc1ccc(C(=O)NC2CC2)cc1-c1ccc2c(O[C@H](C)C(F)(F)F)nncc2c1` showed a 50% inhibitory concentration (IC50) of 505 nM.

The next series addresses Tyrosine-protein kinase Lck (Homo sapiens, UniProt P06239).
Details: not given
Take `Cc1ccc(C(=O)NC2CC2)cc1-c1ccc2c(N3CCOC[C@@H]3C)nncc2c1`: the concentration for half-maximal inhibition (IC50) was > 10000 nM.
Same read-out and setting: for `Cc1ccc(C(=O)NC2CC2)cc1-c1ccc2c(O[C@H](C)C(F)(F)F)nncc2c1` the value was 6050 nM.
